pEC50: −log10 of the molar value.
How the values were obtained:
[1] = tested on: Human immunodeficiency virus 1; assay: Antiviral activity against HIV1 IIIB infected in MT4 cells assessed as reduction in virus induced cytopathic effect incubated for 5 days by MTT method; assay type: functional, organism-based; settings: Human immunodeficiency virus 1, IIIB, MT4, 120 h
[2] = Cytotoxicity against human MT4 cells assessed as reduction in cell viability incubated for 5 days by MTT method; assay type: toxicity, cell-based; settings: time 5 day
[3] = Selectivity index, ratio of CC50 for human MT4 cells to EC50 for antiviral activity against HIV1 IIIB infected in MT4 cells; assay type: toxicity, cell-based; settings: read-out: Ratio CC50/EC50
[4] = tested on: Human immunodeficiency virus 1; assay: Antiviral activity against HIV1 IIIB harboring L100I mutant infected in MT4 cells assessed as reduction in virus induced cytopathic effect incubated for 5 days by MTT method; assay type: functional, organism-based; settings: Human immunodeficiency virus 1, IIIB, MT4, 120 h
[5] = tested on: Human immunodeficiency virus 1; assay: Antiviral activity against HIV1 IIIB harboring K103 N mutant infected in MT4 cells assessed as reduction in virus induced cytopathic effect incubated for 5 days by MTT method; assay type: functional, organism-based; settings: Human immunodeficiency virus 1, IIIB, MT4, 120 h
[6] = tested on: Human immunodeficiency virus 1; assay: Antiviral activity against HIV1 IIIB harboring Y181C mutant infected in MT4 cells assessed as reduction in virus induced cytopathic effect incubated for 5 days by MTT method; assay type: functional, organism-based; settings: Human immunodeficiency virus 1, IIIB, MT4, 120 h
[7] = tested on: Human immunodeficiency virus 1; assay: Antiviral activity against HIV1 IIIB harboring Y188L mutant infected in MT4 cells assessed as reduction in virus induced cytopathic effect incubated for 5 days by MTT method; assay type: functional, organism-based; settings: Human immunodeficiency virus 1, IIIB, MT4, 120 h
[8] = tested on: Human immunodeficiency virus 1; assay: Antiviral activity against HIV1 IIIB harboring E138K mutant infected in MT4 cells assessed as reduction in virus induced cytopathic effect incubated for 5 days by MTT method; assay type: functional, organism-based; settings: Human immunodeficiency virus 1, IIIB, MT4, 120 h
[9] = tested on: Human immunodeficiency virus 1; assay: Antiviral activity against HIV1 IIIB harboring F227L/V106A double mutant infected in MT4 cells assessed as reduction in virus induced cytopathic effect incubated for 5 days by MTT method; assay type: functional, organism-based; settings: Human immunodeficiency virus 1, IIIB, MT4, 120 h
[10] = tested on: Human immunodeficiency virus 1; assay: Antiviral activity against HIV1 IIIB harboring RES056 mutant infected in MT4 cells assessed as reduction in virus induced cytopathic effect incubated for 5 days by MTT method; assay type: functional, organism-based; settings: Human immunodeficiency virus 1, IIIB, MT4, 120 h

Structure (SMILES)	pEC50 [1]	CC50 at 120 h [2] [nM]	selectivity ratio [3]	pEC50 [4]	pEC50 [5]	pEC50 [6]	pEC50 [7]	pEC50 [8]	pEC50 [9]	pEC50 [10]
CNC(=O)Cn1cc(CN2CCC(Nc3nc(Oc4c(C)cc(/C=C/C#N)cc4C)c4sccc4n3)CC2)nn1	8.40	18400	4720	8.22	8.30	7.80	7.36	7.85	7.18	7.00
Cc1cc(/C=C/C#N)cc(C)c1Oc1nc(NC2CCN(Cc3cn(CC(=O)NC4CCOCC4)nn3)CC2)nc2ccccc12	8.10	18400	2300	7.82	7.85	7.51	7.26	7.57	6.19	6.79
Cc1cc(/C=C/C#N)cc(C)c1Oc1nc(NC2CCN(Cc3cn(CC(=O)NC4CC4)nn3)CC2)nc2ccsc12	8.22	18200	2940	7.77		7.64	7.06	7.59	6.80	6.72
CCNC(=O)Cn1cc(CN2CCC(Nc3nccc(Oc4c(C)cc(/C=C/C#N)cc4C)n3)CC2)nn1	9.00	20700	14800	8.15	8.70	8.15	6.39	7.96	6.79	6.67
Cc1cc(/C=C/C#N)cc(C)c1Oc1ccnc(NC2CCN(Cc3cn(CC(N)=O)nn3)CC2)n1	8.70	47400	21600	7.52	8.52	7.68	6.14	7.62	6.73	6.26
CNC(=O)Cn1cc(CN2CCC(Nc3nc4c(c(Oc5c(C)cc(/C=C/C#N)cc5C)n3)COC4)CC2)nn1	8.40	119000	31300	7.77	8.10	7.55	6.75	7.77	6.02	6.09
Cc1cc(/C=C/C#N)cc(C)c1Oc1nc(NC2CCN(Cc3cn(CC(=O)NC4CC4)nn3)CC2)nc2c1COC2	8.30	118000	22800	7.80	8.10	7.48	6.94	7.82	6.56	6.52
Cc1ccnc2c1NC(=O)c1cccnc1N2C1CC1 [NEVIRAPINE]	6.82	> 15000								< 4.82
CCNC(=O)Cn1cc(CN2CCC(Nc3nc4c(c(Oc5c(C)cc(/C=C/C#N)cc5C)n3)COC4)CC2)nn1	8.40	120000	33200	7.89	8.22	7.70	6.76	7.66	6.59	6.29
Cc1cc(/C=C/C#N)cc(C)c1Oc1nc(NC2CCN(Cc3cn(CC(N)=O)nn3)CC2)nc2c1COC2	7.89	125000	9570	7.43	7.49	7.24	6.38	7.51	6.57	5.61
CNC(=O)Cn1cc(CN2CCC(Nc3nc(Oc4c(C)cc(/C=C/C#N)cc4C)c4ccccc4n3)CC2)nn1	8.30	18100	4020	8.10		7.74	7.31	7.89	6.59	6.86
CCNC(=O)Cn1cc(CN2CCC(Nc3nc(Oc4c(C)cc(/C=C/C#N)cc4C)c4sccc4n3)CC2)nn1	8.30	17500	3640	7.92	8.22	7.60	7.10	7.48	6.77	6.74
Cc1cc(/C=C/C#N)cc(C)c1Oc1nc(NC2CCN(Cc3cn(CC(=O)NC4CCOCC4)nn3)CC2)nc2ccsc12	8.30	15600	3060	8.05	8.40	7.72	7.40	7.70	6.97	7.00
Cc1cc(/C=C/C#N)cc(C)c1Oc1nc(NC2CCN(Cc3cn(CC(N)=O)nn3)CC2)nc2ccsc12	8.30	16200	3000	7.74	8.10	7.49	7.01	7.68	7.03	6.62
CNC(=O)Cn1cc(CN2CCC(Nc3nccc(Oc4c(C)cc(/C=C/C#N)cc4C)n3)CC2)nn1	9.00	23500	19600	8.00	8.70	7.96	6.26	8.00	6.68	6.58
O=C1Nc2ccc(Cl)cc2[C@@](C#CC2CC2)(C(F)(F)F)O1 [EFAVIRENZ]		> 6350								
CCNC(=O)Cn1cc(CN2CCC(Nc3nc(Oc4c(C)cc(/C=C/C#N)cc4C)c4ccccc4n3)CC2)nn1	8.30	23700	4230	7.74	8.00	7.48	7.22	7.44	6.03	6.62
Cc1cc(/C=C/C#N)cc(C)c1Oc1nc(NC2CCN(Cc3cn(CC(=O)NC4CCOCC4)nn3)CC2)nc2c1COC2	7.96	112000	10400	7.68	7.80	7.42	6.80	7.60	6.16	6.41
Cc1cc(/C=C/C#N)cc(C)c1Oc1nc(NC2CCN(Cc3cn(CC(N)=O)nn3)CC2)nc2ccccc12	8.22	18100	3300	7.77	8.10	7.48	7.09	7.64	6.30	6.73
Cc1cc(/C=C/C#N)cc(C)c1Oc1ccnc(NC2CCN(Cc3cn(CC(=O)NC4CCOCC4)nn3)CC2)n1	8.40	19200	4560	7.72	8.30	7.66	6.28	7.47	6.63	6.72

Source: ChEMBL document CHEMBL5614409, “Discovery of potent HIV-1 NNRTIs by CuAAC click-chemistry-based miniaturized synthesis, rapid screening and structure optimization” (Eur J Med Chem, 2024)
